# Tested on: Pre-osteoblast cells
# Assay: Pre-osteoblast cells in oestrogen-free environment, hormone with or without silicon, total protein
# Procedure: The cells for these respective experiments had also been passaged and maintained in media containing no added silicon (for the subsequent E2 or vehicle alone experiments) or containing 50 micromolar silicon (for the subsequent Si or E2+Si experiments).
# Thus in experiments identical to those described above at the 48 hour time point, we investigated the effects of 10^−6 M progesterone instead of oestradiol.
molecule,measurement,setting,value
orthosilicic acid,total protein,"orthosilicic acid 50 micromolar without E2, oestrogen-free environment, FIG. 2",no significant effect
C[C@]12CC[C@@H]3c4ccc(O)cc4CC[C@H]3[C@@H]1CC[C@@H]2O [oestradiol],total protein concentration,"10^-9 M E2, absence of silicon, varying lengths of time, versus baseline (vehicle), FIG. 2",no effect
CC(=O)[C@H]1CC[C@H]2[C@@H]3CCC4=CC(=O)CC[C@]4(C)[C@H]3CC[C@]12C [progesterone],total protein,"10^-6 M progesterone together with silicon (50 micromolar), 48 hour time point, FIG. 4",modest effect

# — patent US20110311633A1, “Combination of a Silicon Containing Component and a Hormone” (priority 2005, published 2011)
